Measured values taken from publication PMC7913927, “Leishmanicidal Activity of Betulin Derivatives in Leishmania amazonensis; Effect on Plasma and Mitochondrial Membrane Potential, and Macrophage Nitric Oxide and Superoxide Production” (Microorganisms, 2021).
“Also recorded” adds a separate entry of the source. Like-named read-outs stand apart in the source and are kept apart here.

Tests used:
[1] = tested on: J774.1 macrophages, healthy or infected with LTB0016, VE98MR or VE2000MM; assay: Nitric oxide (NO) production, Griess reaction; type: cell-based, murine; conditions: non-infected and infected macrophages; 48 h; 18: 1 and 2 µM; 22: 2 and 4 µM
Protocol: Following a previously described procedure, infected and uninfected macrophage cultures were treated with test compounds to analyze their effect in Leishmania host cell nitric oxide (NO) production. J774.1 macrophages, at the third day of growth, were collected and seeded in flat-bottom 96-well culture plates, at a density of 1 × 10^6 cells mL^−1 (2 × 10^5 macrophages/well), in 200 µL of RPMIc. The plates were incubated for 2 h; once the supernatant was discarded, the medium was replaced with 200 µL of RPMIc mixed with infectious promastigotes in the stationary phase of growth (1 × 10^7 parasites/mL, 2 × 10^6 parasites/well), so that the ratio macrophage: parasites was 1:10 [41]. The plates were then incubated for 4 h, the medium was replaced with fresh RPMIc and the test compounds were applied, according to the different treatment groups. The plates were kept in incubation for 48 h, at 37 °C and 5% CO2.
From the culture supernatants, 50-µL aliquots were recovered and transferred to a new 96-well plate to perform the Griess reaction, 50 µL of Solution 1 [1% sulfanilamide dissolved in 2.5% phosphoric acid] was added, incubated for 5 min at RT and in the dark. […] Finally, the colorimetric reading was performed at 550 nm. […] Levels of NO2^− (expressed as µM of NO2^−) were calculated from a calibration curve constructed with increasing concentrations of sodium nitrite (NaNO2). […]

[2] = tested on: VE2000MM intracellular amastigotes in J774.1 macrophages; assay: Macrophage-amastigote model, patient isolate VE2000MM; type: cell-based, Leishmania amazonensis; conditions: for Regresion (GraphPad 6) of %Control vs dose (50% inhibitory concentration) / Growth (%) Exp1 %Control / Growth (%) Exp1 A/100MØ / Growth (%) Exp1 A/MØ / Growth (%) Exp1 Infección / Growth (%) Exp2 %Control / Growth (%) Exp2 A/100MØ / Growth (%) Exp2 A/MØ / Growth (%) Exp2 Infección / Growth (%) Exp3 %Control / Growth (%) Exp3 A/100MØ / Growth (%) Exp3 A/MØ / Growth (%) Exp3 Infección / Average A/100MØ: VE2000MM; for Regresion (GraphPad 6) of %Control vs dose (50% inhibitory concentration): unit from Dose head; for Average A/100MØ: average of Exp1-3
Protocol: We used a previously described methodology, with some modifications. Macrophage monolayers, grown in RMPIc medium, for 3 days, were detached from the bottom of the culture chamber, by physical treatment (low temperature and light strokes). Obtained macrophages were seeded in flat-bottom 96-well culture plates, at a density of 2 × 10^5 cells mL^−1 (40,000 macrophages/well), in a final volume of 200 µL. Plates were incubated for 2 h, and the supernatant was discarded to remove non-adhered macrophages. Medium was replaced with stationary-phase promastigotes suspended in 200 µL of RPMIc (2 × 10^6 parasites mL^−1, 400,000 parasites/well), at a macrophage: parasite ratio 1:10 [40]. The plates were incubated for 4 h. Afterwards the medium was replaced with fresh RPMIc and increasing concentrations of compounds or drugs tested were applied, in volumes of 2 µL, according to the different treatment groups. Plates were kept for 72 h, at 37 °C and 5% CO2. The medium was discarded and the wells were washed twice with PBS. Next, a Giemsa staining was performed in situ. It consisted of adding 200 µL of methanol/well, incubating for 5 min, discarding the fixative, and letting it dry at room temperature. Later, the Giemsa solution (10% in PBS w/v, 200 µL/well) was added, incubated for 10 min, and washed with PBS, allowing it to dry. Finally, the bottom of the plates was detached by percussion and the circular bottoms (wells) were fixed to slides with Permount synthetic resin, for later evaluation (Alcazar W., manuscript in preparation). Cell counting was performed with a 100× immersion objective. A minimum of 200 random macrophages were examined. The percentage of infected macrophages (% infection) and the average number of amastigotes present in infected macrophages (amastigotes) were determined. […] The infection rate represents the number of intracellular amastigotes per 100 macrophages evaluated. Additionally, the GI50 for the decrease in the infection rate was calculated. At least three independent experiments were performed. The effect of amphotericin-B (AmB) [Sigma-Aldrich, (St. Louis, MO, USA)] was included as positive control of the assay.

C=C(C)C1CCC2(C=NO)CCC3(C)C(CCC4C5(C)CCC(=NO)C(C)(C)C5CCC43C)C12 (centres unmarked) [Compound 18]
Nitric oxide (NO) production by macrophages [1]: neither 18 nor 22 induced nitric oxide production in infected macrophages; also recorded: not capable of inducing NO production in any of the strains tested; also recorded: not capable of inducing NO production for any of the strains tested
SI (CC50/GI50) VE2000MM ([2]; J774.1 CC50 / intracellular amastigote GI50, Table 2): 66.79
GI50 ([2]; VE2000MM intracellular amastigotes, read-out: GI50 (µM) Experiment 1 Regresion): 0.87 µM
GI50 ([2]; VE2000MM intracellular amastigotes, read-out: GI50 (µM) Experiment 2 Regresion): 0.43 µM
GI50 ([2]; VE2000MM intracellular amastigotes, read-out: GI50 (µM) Experiment 3 Regresion): 0.62 µM
Regresion (GraphPad 6) of %Control vs dose (50% inhibitory concentration) ([2]; Exp1): 0.87 µM
Regresion (GraphPad 6) of %Control vs dose (50% inhibitory concentration) ([2]; Exp2): 0.43 µM
Regresion (GraphPad 6) of %Control vs dose (50% inhibitory concentration) ([2]; Exp3): 0.62 µM
Growth (%) Exp1 %Control ([2]; dose 0.10 µM, Exp1): 85.88%
Growth (%) Exp1 A/100MØ ([2]; dose 0.10 µM, Exp1): 212.29
Growth (%) Exp1 A/MØ ([2]; dose 0.10 µM, Exp1): 3.35
Growth (%) Exp1 Infección ([2]; dose 0.10 µM, Exp1): 63.37%
Growth (%) Exp2 %Control ([2]; dose 0.10 µM, Exp2): 78.62%
Growth (%) Exp2 A/100MØ ([2]; dose 0.10 µM, Exp2): 190.11
Growth (%) Exp2 A/MØ ([2]; dose 0.10 µM, Exp2): 3.20
Growth (%) Exp2 Infección ([2]; dose 0.10 µM, Exp2): 59.41%
Growth (%) Exp3 %Control ([2]; dose 0.10 µM, Exp3): 72.17%
Growth (%) Exp3 A/100MØ ([2]; dose 0.10 µM, Exp3): 163.09
Growth (%) Exp3 A/MØ ([2]; dose 0.10 µM, Exp3): 3.10
Growth (%) Exp3 Infección ([2]; dose 0.10 µM, Exp3): 52.61%
Average A/100MØ ([2]; dose 0.10 µM): 188.50
Growth (%) Exp1 %Control ([2]; dose 0.50 µM, Exp1): 66.72%
Growth (%) Exp1 A/100MØ ([2]; dose 0.50 µM, Exp1): 164.92
Growth (%) Exp1 A/MØ ([2]; dose 0.50 µM, Exp1): 2.90
Growth (%) Exp1 Infección ([2]; dose 0.50 µM, Exp1): 56.87%
Growth (%) Exp2 %Control ([2]; dose 0.50 µM, Exp2): 51.58%
Growth (%) Exp2 A/100MØ ([2]; dose 0.50 µM, Exp2): 124.74
Growth (%) Exp2 A/MØ ([2]; dose 0.50 µM, Exp2): 2.98
Growth (%) Exp2 Infección ([2]; dose 0.50 µM, Exp2): 41.86%
Growth (%) Exp3 %Control ([2]; dose 0.50 µM, Exp3): 54.73%
Growth (%) Exp3 A/100MØ ([2]; dose 0.50 µM, Exp3): 123.67
Growth (%) Exp3 A/MØ ([2]; dose 0.50 µM, Exp3): 3.24
Growth (%) Exp3 Infección ([2]; dose 0.50 µM, Exp3): 38.17%
Average A/100MØ ([2]; dose 0.50 µM): 137.78
Growth (%) Exp1 %Control ([2]; dose 1.00 µM, Exp1): 45.38%
Growth (%) Exp1 A/100MØ ([2]; dose 1.00 µM, Exp1): 112.17
Growth (%) Exp1 A/MØ ([2]; dose 1.00 µM, Exp1): 2.76
Growth (%) Exp1 Infección ([2]; dose 1.00 µM, Exp1): 40.64%
Growth (%) Exp2 %Control ([2]; dose 1.00 µM, Exp2): 23.47%
Growth (%) Exp2 A/100MØ ([2]; dose 1.00 µM, Exp2): 56.76
Growth (%) Exp2 A/MØ ([2]; dose 1.00 µM, Exp2): 1.93
Growth (%) Exp2 Infección ([2]; dose 1.00 µM, Exp2): 29.41%
Growth (%) Exp3 %Control ([2]; dose 1.00 µM, Exp3): 44.34%
Growth (%) Exp3 A/100MØ ([2]; dose 1.00 µM, Exp3): 100.21
Growth (%) Exp3 A/MØ ([2]; dose 1.00 µM, Exp3): 2.85
Growth (%) Exp3 Infección ([2]; dose 1.00 µM, Exp3): 35.16%
Average A/100MØ ([2]; dose 1.00 µM): 89.71
Growth (%) Exp1 %Control ([2]; dose 5.00 µM, Exp1): 12.40%
Growth (%) Exp1 A/100MØ ([2]; dose 5.00 µM, Exp1): 30.64
Growth (%) Exp1 A/MØ ([2]; dose 5.00 µM, Exp1): 1.33
Growth (%) Exp1 Infección ([2]; dose 5.00 µM, Exp1): 23.04%
Growth (%) Exp2 %Control ([2]; dose 5.00 µM, Exp2): 17.91%
Growth (%) Exp2 A/100MØ ([2]; dose 5.00 µM, Exp2): 43.32
Growth (%) Exp2 A/MØ ([2]; dose 5.00 µM, Exp2): 2.00
Growth (%) Exp2 Infección ([2]; dose 5.00 µM, Exp2): 21.66%
Growth (%) Exp3 %Control ([2]; dose 5.00 µM, Exp3): 26.77%
Growth (%) Exp3 A/100MØ ([2]; dose 5.00 µM, Exp3): 60.50
Growth (%) Exp3 A/MØ ([2]; dose 5.00 µM, Exp3): 2.96
Growth (%) Exp3 Infección ([2]; dose 5.00 µM, Exp3): 20.44%
Average A/100MØ ([2]; dose 5.00 µM): 44.82
Growth (%) Exp1 %Control ([2]; dose 10.00 µM, Exp1): 11.00%
Growth (%) Exp1 A/100MØ ([2]; dose 10.00 µM, Exp1): 27.18
Growth (%) Exp1 A/MØ ([2]; dose 10.00 µM, Exp1): 1.50
Growth (%) Exp1 Infección ([2]; dose 10.00 µM, Exp1): 18.12%
Growth (%) Exp2 %Control ([2]; dose 10.00 µM, Exp2): 9.36%
Growth (%) Exp2 A/100MØ ([2]; dose 10.00 µM, Exp2): 22.64
Growth (%) Exp2 A/MØ ([2]; dose 10.00 µM, Exp2): 1.78
Growth (%) Exp2 Infección ([2]; dose 10.00 µM, Exp2): 12.72%
Growth (%) Exp3 %Control ([2]; dose 10.00 µM, Exp3): 7.87%
Growth (%) Exp3 A/100MØ ([2]; dose 10.00 µM, Exp3): 17.78
Growth (%) Exp3 A/MØ ([2]; dose 10.00 µM, Exp3): 1.69
Growth (%) Exp3 Infección ([2]; dose 10.00 µM, Exp3): 10.52%
Average A/100MØ ([2]; dose 10.00 µM): 22.53
GI50 ([2]; intracellular amastigotes, Supplementary Materials II, read-out: GI50 (µM) VE2000MM, mean of three experiments): 0.64 µM
